Square brackets hold non-standard residues; d marks the D form. Ends that are not written are not given here.
Key:
[1] = Topical delivery of FITC-labeled NBD peptide into skin; assay type: in vivo
Excerpt: To assess the ability to deliver the NBD peptide of SEQ ID NO: 122 topically, the peptide was conjugated to the fluorophore FITC, and the labeled peptide prepared in two different formulations. The first formulation consisted of the labeled peptide dissolved in vaseline ointment, and the second formulation consisted of the labeled peptide dissolved in DMSO.

A20 = assay: Western blot of A20 in skin of WT and PSX mice with and without TPA; assay type: in vivo, mouse; conditions: topical TPA; wild-type and old (24-week) PSX mice compared to young (4-week) PSX mice
[2] = tested on: PSX mice (K14-VEGF transgenic psoriasis model); assay: Ear thickness / psoriatic lesion development in PSX (homozygous K14-VEGF transgenic) mice; assay type: in vivo, mouse; conditions: intraperitoneal 50 micrograms twice weekly; for mean ear thickness / psoriatic skin lesions: older PSX mice with fully developed psoriatic lesions, 8 weeks, vs untreated control
Excerpt: This K14-VEGF mouse was backcrossed to homozygosity for the transgene(s), generating a mouse model that develops psoriasiform lesions on the ears spontaneously and after trauma. These are referred to as PSX mice. […] FIGS. 3A-D illustrate the PSX transgenic mouse model used in screening psoriasis treatments in accordance with the present invention. […] FIGS. 3C and 3D show pathology of the mouse model.
The NF-κB inhibitor used for the treatments in this example was the fusion protein drqikiwfqnrrmkwkkTALDWSWLQTE (SEQ ID NO: 122), where lower case letters indicate D-amino acid residues and upper case letters indicate L-amino acid residues. This inhibitor includes a translocation domain of Antennapedia and an Nemo Binding Domain (NBD) peptide.
The peptide was formulated and administered as an intraperitoneal injection of 50 micrograms to either PSX mice after they had fully developed psoriatic skin lesions (FIG. 7) or prior to the development of psoriatic plaques when the ears were still uninvolved (FIG. 8). Assessment of the development of psoriatic lesions was measured by the thickness of ear tissue.

## FITC-conjugated NBD peptide of SEQ ID NO: 122: NBD peptide of SEQ ID NO: 122 conjugated to the fluorophore FITC, in vaseline ointment or DMSO ([dD][dR][dQ][dI][dK][dI][dW][dF][dQ][dN][dR][dR][dM][dK][dW][dK][dK]TALDWSWLQTE; also: FITC conjugate, site not given here)
[1]; peptide in DMSO
  peptide localisation in skin after topical administration: uptake is prevalent among the cells in both the epidermis and dermis
[1]; peptide in vaseline ointment
  peptide localisation in skin after topical administration: limited to the stratum corneum

## CCCCCCCCCCCCCC(=O)O[C@@H]1[C@@H](C)[C@@]2(O)[C@@H](C=C(CO)C[C@]3(O)C(=O)C(C)=C[C@@H]23)[C@@H]2C(C)(C)[C@]12OC(C)=O [TPA, 12-O-tetradecanoyl phorbol-13-acetate]
A20
  A20 protein induction: robust induction

## drqikiwfqnrrmkwkkTALDWSWLQTE ([dD][dR][dQ][dI][dK][dI][dW][dF][dQ][dN][dR][dR][dM][dK][dW][dK][dK]TALDWSWLQTE) [SEQ ID NO: 122]
[2]; listed as NF-κB inhibitor
  mean ear thickness / psoriatic skin lesions: no change
[2]; listed as peptide
  mean ear thickness / psoriatic skin lesions: no effect
[2]; young PSX mice treated prior to development of psoriatic plaques, vs vehicle (DMSO)
  thickening of the ear and development of phenotypic lesions of psoriasis: prevented the thickening of the ear
